According to patent US3935255A, “Phenylacetic acid derivatives” (Laboratoires Jacques Logeais, priority 1973, dated 1976):
Read-outs that look alike come from different tables or passages of the source.

Assays:
[1] = Koster test (analgesic action); type: in vivo; details: po
Source text: (§1) Said properties were evidenced in animals by means of conventional pharmacological tests.
Analgesic action: Koster test (cf. KOSTER and ANDERSON. Feder. Proceed., 1959, 18, 412)

LD50 (acute toxicity) = details: in vivo
[2] = system: fever induced by injection of barm; assay: Antipyretic action against fever induced by injection of barm, in rats; type: in vivo; details: p.o.
Source text: as §1
Antipyretic action, against fever induced by injection of barm, in rats.

[3] = system: adjuvant-induced polyarthritis; assay: Adjuvant-induced polyarthritis in rats (anti-inflammatory action); type: in vivo; details: Rattus norvegicus, 336 h, p.o., oral dosage which decreases by at least 50% the manifestations of arthritis within 14 days
Source text: as §1
(§2) Anti-inflammatory action:
adjuvant-induced polyarthritis in rats, determination of the oral dosage (mg/kg/day) which decreases by at least 50% the manifestations of arthritis within 14 days.

[4] = system: ultraviolet-induced erythema; assay: Ultraviolet-induced erythema in guinea-pigs (anti-inflammatory action); type: in vivo; details: Cavia porcellus, po, read-out: UV-induced erythema ED50
Source text: as §1, §2
ultraviolet-induced erythema in guinea-pigs (cf. WINTER, Arch. Int. Pharmaco., 1958, 116, 261),

[5] = system: carrageenin-induced edema; assay: Carrageenin-induced edema in rats (anti-inflammatory action); type: in vivo; details: Rattus norvegicus, po
Source text: as §1, §2
carrageenin-induced edema in rats (cf. WINTER, RISLEY and MUSS, Proc. Soc. Exp. Biol. Med., 1962, 111, 544),

In the case of `CC(C(=O)O)c1ccc(C2CCCC(=NO)C2)cc1` (stereo not drawn) [Example 2, 2-[4-(3'-Hydroxyimino-cyclohexyl)phenyl]propionic acid], the ED50 [1] is reported as 4.5 mg/kg, the LD50 (LD50 (acute toxicity); ip, I.P., read-out: LD50 I.P.) is reported as > 200 mg/kg and the LD50 (LD50 (acute toxicity); po, P.O., read-out: LD50 P.O.) is reported as > 200 mg/kg. For the same compound, the Antipyretic action [2] was 3 mg·kg, the ED50 [3] was 0.9 mg/kg and the ED50 [4] was 2 mg/kg. The ED40 [5] was 0.25 mg/kg.

For `CC(C(=O)O)c1ccc(C2=CC(=NO)CCC2)cc1` (stereo not drawn) [Example 1, 2-[4-(3'-Hydroxyimino-cyclohexen-1'-yl)-phenyl]propionic acid], the ED50 [1] was 30 to 50 mg/kg, the LD50 (LD50 (acute toxicity); ip, I.P., read-out: LD50 I.P.) was > 100 mg/kg and the LD50 (LD50 (acute toxicity); po, P.O., read-out: LD50 P.O.) was > 100 mg/kg. The Antipyretic action [2] was 30 mg·kg and the ED40 [5] was 2.2 mg/kg.
